From patent EP0514133A1, “Benzodiazepine derivatives, compositions containing them and their use in therapy” (priority 1991, dated 1992)

How the values were obtained:
[1] = molecular target: T1, CCK receptor (brain, cortex) (Cavia porcellus, UniProt H0VZC5); assay: biochemical; assay type: binding, guinea pig; settings: guinea pig cortex membranes, 50 pM 125I-CCK-8, 25°C 2 hours; read-out: IC50 ^125I-CCK Brain
T1 construct: the cortex was removed and homogenized in 25 mL ice-cold 0.32 M sucrose; from tissue; host or cells: guinea pig brain cortex P2 membrane pellet
T1 sequence (H0VZC5 1-426): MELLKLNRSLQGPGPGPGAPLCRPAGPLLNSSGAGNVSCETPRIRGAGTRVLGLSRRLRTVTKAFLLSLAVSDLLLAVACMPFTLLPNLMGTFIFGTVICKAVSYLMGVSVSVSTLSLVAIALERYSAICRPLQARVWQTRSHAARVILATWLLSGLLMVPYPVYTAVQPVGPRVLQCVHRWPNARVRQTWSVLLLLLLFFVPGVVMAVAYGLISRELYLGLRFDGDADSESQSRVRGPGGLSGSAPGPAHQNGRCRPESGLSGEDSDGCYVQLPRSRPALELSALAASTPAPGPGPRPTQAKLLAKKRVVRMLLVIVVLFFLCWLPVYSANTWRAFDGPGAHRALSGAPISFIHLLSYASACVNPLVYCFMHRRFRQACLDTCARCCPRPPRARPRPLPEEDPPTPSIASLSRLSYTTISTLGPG
Procedure: CCK-8 sulphated was radiolabelled and the binding was performed according to the description for the pancreas method with minor modifications.
Male Hartley guinea pigs (300-500g) were sacrificed by decapitation and the cortex was removed and homogenized in 25 mL ice-cold 0.32 M sucrose. The homogenates were centrifuged at 1000 g for 10 minutes and the resulting supernatant was recentrifuged at 20,000 g for 20 minutes. The P₂ pellet was resuspended in binding assay buffer (20mM HEPES, 5 mM MgCl₂, 0.25 mg/ml bacitracin, 1 mM EGTA pH 6.5 at 25°C), using a Teflon (trademark) homogenizer (5 strokes at 500 rpm) to give a final concentration of 10 mg original wet weight/1.2 ml buffer. […] All assays were run in duplicate. The reaction mixtures were incubated at 25°C for 2 hours and then the reaction was terminated by rapid filtration (Brandell 24 well cell harvester) on Whatman GF/C filters with 3 x 5 ml washes of cold 100 mM NaCl. The radioactivity on the filters was counted with a LKB gamma counter.
(§1) Drug displacement studies were performed with at least 10 concentrations of compounds of Formula I and the IC₅₀ values were determined by regression analysis IC₅₀ refers to the concentration of the compound required to inhibit 50% of specific binding of ¹²⁵I-CCK-8.

Gastrin Receptor = molecular target: T2, Gastrin Receptor (Cavia porcellus, UniProt H0VZC5); assay: Gastrin Receptor Binding in Guinea Pig Gastric Glands, 125I-gastrin; set-up: from tissue; host or cells: isolated guinea pig gastric mucosal glands; settings: 0.1 nM 125I-gastrin, 25°C 30 minutes
T2 sequence (H0VZC5 1-426): T1 sequence (H0VZC5 1-426)
Procedure: Gastrin antagonist activity of compounds of Formula I was determined using the following assay.
Guinea pig gastric mucosal glands were prepared by the procedure of Chang et. al., Science, 230, 177-179 (1985) with slight modifications. […] The tissues were passed twice through a 5 ml syringe to liberate the gastric glands, and then filtered through Nitex (trademark) #202 gauge nylon mesh. The filtered glands were centrifuged at 272 g for 5 minutes and washed twice by resuspension in 25 ml buffer and centrifugation.
The washed guinea pig gastric glands prepared as above were resuspended in 25 ml of standard buffer. For binding studies, to 250 µl of gastric glands, 30 µl of buffer (for total binding) or gastrin (3 µM final concentration, for nonspecific binding) or test compound and 20 µl of ¹²⁵I-gastrin (NEN, 2200 Ci/mmole, 0.1 nM final concentration) were added. All assays were run in triplicate. […] The reaction mixtures, after incubation at 25°C for 30 minutes in a shaking water bath were rapidly filtered (Brandell 24 well cell harvester) over Whatman G/F B filters presoaked in assay buffer and immediately washed further with 3 x 4 ml of 100 mM ice cold NaCl. The radioactivity on the filters was measured using a LKB gamma counter.

CCK receptor (pancreas) = molecular target: T3, CCK receptor (pancreas) (Rattus norvegicus, UniProt P30551); assay: biochemical; assay type: binding; settings: rat pancreas membranes, 50 pM 125I-CCK-8, 25°C 2 hours
T3 construct: The whole pancreas was dissected free of fat tissue and was homogenized; from tissue; host or cells: rat pancreas membrane homogenate
T3 sequence (P30551 1-444): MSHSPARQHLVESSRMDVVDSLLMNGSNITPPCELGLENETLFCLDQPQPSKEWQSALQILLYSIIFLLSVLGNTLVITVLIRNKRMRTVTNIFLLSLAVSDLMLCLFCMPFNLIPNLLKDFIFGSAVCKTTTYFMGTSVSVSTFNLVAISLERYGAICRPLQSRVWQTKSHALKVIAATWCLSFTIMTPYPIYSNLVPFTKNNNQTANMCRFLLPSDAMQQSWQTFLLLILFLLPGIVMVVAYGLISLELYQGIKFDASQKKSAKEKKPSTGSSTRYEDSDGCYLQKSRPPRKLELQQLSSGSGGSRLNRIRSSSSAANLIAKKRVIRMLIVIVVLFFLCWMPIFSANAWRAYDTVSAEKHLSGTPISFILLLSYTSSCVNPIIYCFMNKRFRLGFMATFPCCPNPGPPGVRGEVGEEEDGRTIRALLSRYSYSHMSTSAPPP
Procedure: CCK-8 sulphated was radiolabelled with ¹²⁵I-Bolton Hunter reagent (2000 Ci/mmole). Receptor binding was performed according to Chang and Lotti (Proc. Natl. Acad. Sci. 83, 4923-4926, 1986) with minor modifications.
Male Sprague-Dawley rats (150-200g) were sacrificed by decapitation. The whole pancreas was dissected free of fat tissue and was homogenized in 25 volumes of ice-cold 10 mM N-2-hydroxyethyl-piperazine-N′-2-ethane sulphonic acid (HEPES) buffer with 0.1% soya bean trypsin inhibitor (pH 7.4 at 25°C) with a Kinematica Polytron. The homogenates were centrifuged at 47,800 g for 10 min. Pellets were resuspended in 10 volumes of binding assay buffer (20mM (HEPES)), 1mM ethylene glycol-bis-(β-aminoethylether-N,N′-tetraacetic acid) (EGTA), 5mM MgCl₂, 150 mM NaCl, bacitracin 0.25 mg/ml, soya bean trypsin inhibitor 0.1 mg/ml, and bovine serum albumin 2 mg/ml pH 6.5 at 25°C) using a Teflon (trademark) homogenizer, 15 strokes at 500 rpm. The homogenate was further diluted in binding assay buffer to give a final concentration of 0.5 mg original wet weight/1 ml buffer. […] All assays were run in duplicate. The reaction mixtures were incubated at 25°C for 2 hours and the reaction terminated by rapid filtration (Brandell 24 well cell harvester) over Whatman GF/C filters, washing 3 x 4 mls with ice-cold 100 Mm NaCl. The radioactivity on the filters was counted with a LKB gamma counter.
as §1

| SMILES | IC50 [1] | IC50 (Gastrin Receptor) | IC50 (CCK receptor (pancreas)) |
| --- | --- | --- | --- |
| Cc1cccc(NC(=O)NC2N=C(C3CCCCC3)c3ccccc3N(C)C2=O)c1 (racemic) [Example 1, N-[3(R,S)-5-Cyclohexyl-2,3-dihydro-1-methyl-2-oxo-1H-1,4-benzodiazepin-3-yl] N′-[3-methylphenyl] urea] | 2.2 nM | 0.83 nM | – |
| CC(C)S(=O)(=O)NC(=O)c1cccc(NC(=O)NC2N=C(C3CCCCC3)c3ccccc3N(C)C2=O)c1 (racemic) [Example 12, N-[3(R,S)-5-Cyclohexyl-2,3-dihydro-1-methyl-2-oxo-1H-1,4-benzodiazepin-3-yl] N′-[3-(isopropylsulphonylaminocarbonyl)phenyl] urea] | – | 3.24 nM | 12.4 nM |
| CN1C(=O)C(NC(=O)Nc2cccc(S(=O)(=O)Nc3nccs3)c2)N=C(C2CCCCC2)c2ccccc21 (racemic) [Example 26, N-[3(R,S)-5-Cyclohexyl-2,3-dihydro-1-methyl-2-oxo-1H-1,4-benzodiazepin-3-yl] N′-[3-(thiazol-2-ylaminosulphonyl)phenyl]urea] | 2.3 nM | – | 60 nM |
| CN1C(=O)C(NC(=O)Nc2cccc(-c3nnn(C)n3)c2)N=C(C2CCCCC2)c2ccccc21 (racemic) [Example 28, N-[3(R,S)-5-Cyclohexyl-2,3-dihydro-1-methyl-2-oxo-1H-1,4-benzodiazepin-3-yl] N′-[3-(2-methyltetrazol-5-yl)phenyl]urea] | 4 nM | – | 8.3 nM |
| CCN1C(=O)C(NC(=O)Nc2cccc(C(=O)NS(C)(=O)=O)c2)N=C(C2CCCC2)c2ccccc21 (racemic) [Example 29, N-(3(R,S)-5-Cyclopentyl-2,3-dihydro-1-ethyl-2-oxo-1H-1,4-benzodiazepin-3-yl] N′-(3-(methylsulphonylaminocarbonyl)phenyl] urea] | 6.3 nM | – | 22 nM |
| CCN1C(=O)C(NC(=O)Nc2cccc(C(=O)NS(=O)(=O)C(C)C)c2)N=C(C2CCCC2)c2ccccc21 (racemic) [Example 30, N-[3(R,S)-5-Cyclopentyl-2,3-dihydro-1-ethyl-2-oxo-1H-1,4-benzodiazepin-3-yl] N′-[3-(isopropylsulphonylaminocarbonyl)phenyl] urea] | 3.2 nM | – | 170 nM |
| CN1C(=O)C(NC(=O)Nc2cccc(S(=O)(=O)NC(=O)C(C)(C)C)c2)N=C(C2CCCCC2)c2ccccc21 (racemic) [Example 32, N-(3(R,S)-5-Cyclohexyl-2,3-dihydro-1-methyl-2-oxo-1H-1,4-benzodiazepin-3-yl] N′-(3-(1,1-dimethylethylcarbonylaminosulphonyl)phenyl] urea] | 1.3 nM | – | 610 nM |
| CCCN1C(=O)C(NC(=O)Nc2cccc(C(=O)NS(=O)(=O)C(C)C)c2)N=C(C2CCCC2)c2ccccc21 (racemic) [Example 36, N-[3(R,S)-5-Cyclopentyl-2,3-dihydro-1-propyl-2-oxo-1H-1,4-benzodiazepin-3-yl] N′-[3-(isopropylsulphonylaminocarbonyl)phenyl] urea] | 1.2 nM | – | 1300 nM |
| CCCN1C(=O)C(NC(=O)Nc2cccc(C(=O)NS(=O)(=O)C(C)(C)C)c2)N=C(C2CCCC2)c2ccccc21 (racemic) [Example 37, N-[3(R,S)-5-Cyclopentyl-2,3-dihydro-1-propyl-2-oxo-1H-1,4-benzodiazepin-3-yl] N′-[3-(1,1-dimethylethylsulphonylaminocarbonyl)phenyl] urea] | 0.19 nM | – | 960 nM |
| CC(C)S(=O)(=O)NC(=O)c1cccc(NC(=O)NC2N=C(C3CCCC3)c3ccccc3N(C)C2=O)c1 (racemic) [Example 38, N-(3(R,S)-5-Cyclopentyl-2,3-dihydro-1-methyl-2-oxo-1H-1,4-benzodiazepin-3-yl] N′-[3-(isopropylsulphonylaminocarbonyl)phenyl] urea] | 6.8 nM | – | 300 nM |
| CN1C(=O)C(NC(=O)Nc2cccc(-c3cc(=O)c(O)co3)c2)N=C(C2CCCCC2)c2ccccc21 (racemic) [Example 43, N-[3(R,S)-5-Cyclohexyl-2,3-dihydro-1-methyl-2-oxo-1H-1,4-benzodiazepin-3-yl] N′-[3-(5-hydroxy-4-pyron-2-yl)phenyl] urea] | 2.1 nM | – | 17.8 nM |
| CN1C(=O)C(NC(=O)Nc2ccc3c(c2)C(=O)NS(=O)(=O)C3)N=C(C2CCCCC2)c2ccccc21 (racemic) [Example 44, N-[3(R,S)-5-Cyclohexyl-2,3-dihydro-1-methyl-2-oxo-1H-1,4-benzodiazepin-3-yl] N′-(3,4-dihydro-2,2-dioxo-4-oxo-1H-2,3-benzothiazin-6-yl] urea] | 3.4 nM | – | 100 nM |
| Cc1cccc(NC(=O)NC2N=C(C3CCCCC3)c3ccccc3N(C)C2=O)c1 (single isomer, unassigned) [7 (Peak A)] | 0.47 nM | 0.92 nM | – |
| CC(C)S(=O)(=O)NC(=O)c1cccc(NC(=O)NC2N=C(C3CCCCC3)c3ccccc3N(C)C2=O)c1 (single isomer, unassigned) [24 (Peak A)] | – | 0.7 nM | 1180 nM |
| Cc1ccc(NC(=O)N[C@@H]2N=C(C3CCCCC3)c3ccccc3N(C)C2=O)cc1C(=O)NS(C)(=O)=O [Example 34, N-[3(R)-5-Cyclohexyl-2,3-dihydro-1-methyl-2-oxo-1H-1,4-benzodiazepin-3-yl] N′-[4-methyl-3-(methylsulphonylaminocarbonyl)phenyl] urea] | 2.3 nM | – | 1700 nM |
| CN1C(=O)[C@@H](NC(=O)Nc2cccc(C(=O)NS(=O)(=O)c3ccccc3)c2)N=C(C2CCCCC2)c2ccccc21 [Example 35, N-[3(S)-5-Cyclohexyl-2,3-dihydro-1-methyl-2-oxo-1H-1,4-benzodiazepin-3-yl] N′-[3-(phenylsulphonylaminocarbonyl)phenyl] urea] | 50.8 nM | – | 10.2 nM |
